Target: T1, estrogen receptor alpha (ESR1) (Homo sapiens, UniProt P03372)
T1 construct: MCF7 cells were trypsinized and washed twice; endogenous in cells; host or cells: MCF7 breast cancer cells
T1 sequence (P03372 1-595): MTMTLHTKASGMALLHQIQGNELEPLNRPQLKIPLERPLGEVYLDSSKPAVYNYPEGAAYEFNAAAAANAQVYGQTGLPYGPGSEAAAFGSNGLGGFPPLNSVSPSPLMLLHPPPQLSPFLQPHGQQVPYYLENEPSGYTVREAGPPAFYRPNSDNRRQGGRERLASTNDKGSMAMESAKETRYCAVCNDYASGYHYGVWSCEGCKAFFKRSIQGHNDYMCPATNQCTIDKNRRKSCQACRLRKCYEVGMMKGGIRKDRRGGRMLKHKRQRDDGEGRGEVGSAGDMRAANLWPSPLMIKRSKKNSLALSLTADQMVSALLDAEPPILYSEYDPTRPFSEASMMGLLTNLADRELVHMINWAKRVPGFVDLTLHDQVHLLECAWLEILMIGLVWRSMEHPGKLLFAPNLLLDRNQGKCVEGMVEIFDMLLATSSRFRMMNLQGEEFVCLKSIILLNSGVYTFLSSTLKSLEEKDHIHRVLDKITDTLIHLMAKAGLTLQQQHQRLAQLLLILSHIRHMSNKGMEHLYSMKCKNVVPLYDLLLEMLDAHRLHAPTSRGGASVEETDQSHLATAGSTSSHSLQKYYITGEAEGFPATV
Experiment: Breast Cancer Cell ERa High Content Fluorescence Imaging Assay (ER-alpha MCF7 Assay)
Format: cell-based
Conditions: MCF7 cells, 4 hours; plateau of maximal effect; DMSO = 0%, 5 nM Fulvestrant = 100% change in ESR1
Method: Cell plates were incubated at 37° C., for 4 hours. Fixation and permeabilization were carried out using a Biotek EL406 plate washer and dispenser as follows. […] Samples were incubated 30 minutes. Well contents was aspirated and 50 uL/well of Phosphate Buffered Saline (PBS) containing 0.5% w/v bovine serum albumen, 0.5% v/v Triton X-100 (Antibody Dilution Buffer) was added to each well. Samples were incubated for 30 minutes. Well contents were aspirated and washed 3 times with 100 uL/well of PBS. Immunofluorescence staining of estrogen receptor alpha (ESR1) was carried out using a Biotek EL406 plate washer and dispenser as follows. […] Samples were incubated for 2 hours at room temperature. Samples were washed 4 times with 100 uL/well of PBS. […] Samples were incubated for 2 hours at room temperature. Samples were washed 3 times with 100 uL/well of PBS using a Biotek EL406. Quantitative fluorescence imaging of ESR1 was carried out using a Cellomics Arrayscan V (Thermo). […] Channel 1 (DNA stain) was used to define the nuclear region (Circ). […] The “Robust Fit” method was used to define the inflexion point of curve (EC50) and the plateau of the maximal effect (Sinf).

Structure (SMILES) | ER-alpha MCF7 Sinf (%)
CC(C)=CC1=C(C)c2cc(O)ccc2OC1c1ccc(OCCN2CC(CF)C2)cc1 (centres unmarked) [Example 16, 2-[4-[2-[3-(Fluoromethyl)azetidin-1-yl]ethoxy]phenyl]-4-methyl-3-(2-methylprop-1-enyl)-2H-chromen-6-ol] | 93.9%
CC1=C(CC(C)C)C(c2ccc(OCCN3CC(CF)C3)cc2)Oc2ccc(O)cc21 (centres unmarked) [Example 17, 2-(4-(2-(3-(Fluoromethyl)azetidin-1-yl)ethoxy)phenyl)-3-isobutyl-4-methyl-2H-chromen-6-ol] | 93.9%
CC1=C(C2=CCNC2)C(c2ccc(OCCN3CC(CF)C3)cc2)Oc2ccc(O)cc21 (centres unmarked) [Example 18, 3-(2,5-dihydro-1H-pyrrol-3-yl)-2-(4-(2-(3-(fluoromethyl)azetidin-1-yl)ethoxy)phenyl)-4-methyl-2H-chromen-6-ol] | 90.0%
CC(=O)N1CCC(C2=C(C)c3cc(O)ccc3OC2c2ccc(OCCN3CC(CF)C3)cc2)C1 (centres unmarked) [Example 19, 1-(3-(2-(4-(2-(3-(Fluoromethyl)azetidin-1-yl)ethoxy)phenyl)-6-hydroxy-4-methyl-2H-chromen-3-yl)pyrrolidin-1-yl)ethanone] | 80%
CC(=O)N1CC=C(C2=C(C)c3cc(O)ccc3OC2c2ccc(OCCN3CC(CF)C3)cc2)C1 (centres unmarked) [Example 20, 1-(3-(2-(4-(2-(3-(Fluoromethyl)azetidin-1-yl)ethoxy)phenyl)-6-hydroxy-4-methyl-2H-chromen-3-yl)-2,5-dihydro-1H-pyrrol-1-yl)ethanone] | 93.7%
CC1=C(C2=CCC(O)CC2)C(c2ccc(OCCN3CC(CF)C3)cc2)Oc2ccc(O)cc21 (centres unmarked) [Example 21, 2-(4-(2-(3-(Fluoromethyl)azetidin-1-yl)ethoxy)phenyl)-3-(4-hydroxycyclohex-1-en-1-yl)-4-methyl-2H-chromen-6-ol] | 98.7%
CC1=C(c2ncc(C#N)cc2C)C(c2ccc(OCCN3CC(CF)C3)cc2)Oc2ccc(O)cc21 (centres unmarked) [Example 22, 2-{4-[2-(3-Fluoromethyl-azetidin-1-yl)-ethoxy]-phenyl}-4-methyl-3-(3-methyl-5-cyano-pyridin-2-yl)-2H-chromen-6-ol] | 97.4%
CC1=C(C2CCOCC2)C(c2ccc(OCCN3CC(CF)C3)cc2)Oc2ccc(O)cc21 (centres unmarked) [Example 24, 2-(4-(2-(3-(fluoromethyl)azetidin-1-yl)ethoxy)phenyl)-4-methyl-3-(tetrahydro-2H-pyran-4-yl)-2H-chromen-6-ol] | 97.7%
CC1=C(C2=CCC(F)(F)CC2)C(c2ccc(OCCN3CC(CF)C3)cc2)Oc2ccc(O)cc21 (centres unmarked) [Example 26, 3-(4,4-difluorocyclohex-1-en-1-yl)-2-(4-(2-(3-(fluoromethyl)azetidin-1-yl)ethoxy)phenyl)-4-methyl-2H-chromen-6-ol] | 97.1%
CC1=C(C2CCOC2)C(c2ccc(OCCN3CC(CF)C3)cc2)Oc2ccc(O)cc21 (centres unmarked) [Example 29, 2-(4-(2-(3-(fluoromethyl)azetidin-1-yl)ethoxy)phenyl)-4-methyl-3-(tetrahydrofuran-3-yl)-2H-chromen-6-ol] | 98.9%
CC1=C(C2=CCOC2)C(c2ccc(OCCN3CC(CF)C3)cc2)Oc2ccc(O)cc21 (centres unmarked) [Example 30, 3-(2,5-dihydrofuran-3-yl)-2-(4-(2-(3-(fluoromethyl)azetidin-1-yl)ethoxy)phenyl)-4-methyl-2H-chromen-6-ol] | 97.9%
CNC(=O)N1CCC(C2=C(C)c3cc(O)ccc3OC2c2ccc(OCCN3CC(CF)C3)cc2)CC1 (centres unmarked) [Example 31, 4-(2-(4-(2-(3-(fluoromethyl)azetidin-1-yl)ethoxy)phenyl)-6-hydroxy-4-methyl-2H-chromen-3-yl)-N-methylpiperidine-1-carboxamide] | 85.9%
CC1=C(c2ccncc2C)C(c2ccc(OCCN3CC(CF)C3)cc2)Oc2ccc(O)cc21 (centres unmarked) [Example 32, 2-{4-[2-(3-Fluoromethyl-azetidin-1-yl)-ethoxy]-phenyl}-4-methyl-3-(3-methyl-pyridin-4-yl)-2H-chromen-6-ol] | 99.4%
CC1=C(c2ncccc2C)C(c2ccc(OCCN3CC(CF)C3)cc2)Oc2ccc(O)cc21 (centres unmarked) [Example 33, 2-{4-[2-(3-Fluoromethyl-azetidin-1-yl)-ethoxy]-phenyl}-4-methyl-3-(3-methyl-pyridin-2-yl)-2H-chromen-6-ol] | 96.4%
CC1=C(c2cnccc2C)C(c2ccc(OCCN3CC(CF)C3)cc2)Oc2ccc(O)cc21 (centres unmarked) [Example 34, 2-{4-[2-(3-Fluoromethyl-azetidin-1-yl)-ethoxy]-phenyl}-4-methyl-3-(4-methyl-pyridin-3-yl)-2H-chromen-6-ol] | 97.5%
CC1=C(c2cccnc2C)C(c2ccc(OCCN3CC(CF)C3)cc2)Oc2ccc(O)cc21 (centres unmarked) [Example 35, 2-{4-[2-(3-Fluoromethyl-azetidin-1-yl)-ethoxy]-phenyl}-4-methyl-3-(2-methyl-pyridin-3-yl)-2H-chromen-6-ol] | 98.5%
CC1=C(c2cncc(C)c2)C(c2ccc(OCCN3CC(CF)C3)cc2)Oc2ccc(O)cc21 (centres unmarked) [Example 37, 2-{4-[2-(3-Fluoromethyl-azetidin-1-yl)-ethoxy]-phenyl}-4-methyl-3-(5-methyl-pyridin-3-yl)-2H-chromen-6-ol] | 99.2%
CC1=C(c2cncnc2)C(c2ccc(OCCN3CC(CF)C3)cc2)Oc2ccc(O)cc21 (centres unmarked) [Example 38, 2-{4-[2-(3-Fluoromethyl-azetidin-1-yl)-ethoxy]-phenyl}-4-methyl-3-pyrimidin-5-yl-2H-chromen-6-ol] | 90.3%
CC1=C(c2cnc(N)nc2)C(c2ccc(OCCN3CC(CF)C3)cc2)Oc2ccc(O)cc21 (centres unmarked) [Example 39, 3-(2-Amino-pyrimidin-5-yl)-2-{4-[2-(3-fluoromethyl-azetidin-1-yl)-ethoxy]-phenyl}-4-methyl-2H-chromen-6-ol] | 95.4%
CC1=C(c2cncc(S(C)(=O)=O)c2)C(c2ccc(OCCN3CC(CF)C3)cc2)Oc2ccc(O)cc21 (centres unmarked) [Example 41, 2-{4-[2-(3-Fluoromethyl-azetidin-1-yl)-ethoxy]-phenyl}-3-(5-methanesulfonyl-pyridin-3-yl)-4-methyl-2H-chromen-6-ol] | 98.9%
CC1=C(c2cnn(C)c2)C(c2ccc(OCCN3CC(CF)C3)cc2)Oc2ccc(O)cc21 (centres unmarked) [Example 42, 2-{4-[2-(3-Fluoromethyl-azetidin-1-yl)-ethoxy]-phenyl}-4-methyl-3-(1-methyl-1H-pyrazol-4-yl)-2H-chromen-6-ol] | 95.2%
CC1=C(c2cncc(F)c2)C(c2ccc(OCCN3CC(CF)C3)cc2)Oc2ccc(O)cc21 (centres unmarked) [Example 43, 2-{4-[2-(3-Fluoromethyl-azetidin-1-yl)-ethoxy]-phenyl}-3-(5-fluoro-pyridin-3-yl)-4-methyl-2H-chromen-6-ol] | 97.3%
CC1=C(c2cncc(C#N)c2)C(c2ccc(OCCN3CC(CF)C3)cc2)Oc2ccc(O)cc21 (centres unmarked) [Example 44, 5-(2-{4-[2-(3-Fluoromethyl-azetidin-1-yl)-ethoxy]-phenyl}-6-hydroxy-4-methyl-2H-chromen-3-yl)-nicotinonitrile] | 91.8%
CC1=C(C2=CC(=O)CC2)C(c2ccc(OCCN3CC(CF)C3)cc2)Oc2ccc(O)cc21 (centres unmarked) [Example 45, 3-[2-[4-[2-[3-(fluoromethyl)azetidin-1-yl]ethoxy]phenyl]-6-hydroxy-4-methyl-2H-chromen-3-yl]cyclopent-2-en-1-one] | 96.6%
CC1=C(C2CCC(O)C2)C(c2ccc(OCCN3CC(CF)C3)cc2)Oc2ccc(O)cc21 (centres unmarked) [Example 46, 2-[4-[2-[3-(fluoromethyl)azetidin-1-yl]ethoxy]phenyl]-3-(3-hydroxycyclopentyl)-4-methyl-2H-chromen-6-ol] | 98.3%
CC1=C(C2=CC(O)CC2)C(c2ccc(OCCN3CC(CF)C3)cc2)Oc2ccc(O)cc21 (centres unmarked) [Example 47, 2-[4-[2-[3-(fluoromethyl)azetidin-1-yl]ethoxy]phenyl]-3-(3-hydroxycyclopenten-1-yl)-4-methyl-2H-chromen-6-ol] | 95.4%
